# According to patent US9725465B2, “Biaryl acetamide compounds and methods of use thereof” (Ambit Biosciences Corporation, priority 2013, dated 2017):
# Key:
# KIT kinase = KIT kinase (Homo sapiens (Human), UniProt P10721); test: Competition binding assay (Kd), KIT; details: competition binding assay
# How it was run: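 Kinase, as T7 phage fusion or HEK-293-expressed DNA-tagged protein, competed off immobilised ligand beads by test compound (eleven-point threefold dilutions, from 100× DMSO stocks). Eluted kinase quantified by qPCR to derive Kd; DMSO used as control.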
# FLT3 kinase = FLT3 kinase (Homo sapiens (Human), UniProt P36888); test: Competition binding assay (Kd), FLT3; details: competition binding assay
# FLT3 kinase, sequence (P36888 27-993): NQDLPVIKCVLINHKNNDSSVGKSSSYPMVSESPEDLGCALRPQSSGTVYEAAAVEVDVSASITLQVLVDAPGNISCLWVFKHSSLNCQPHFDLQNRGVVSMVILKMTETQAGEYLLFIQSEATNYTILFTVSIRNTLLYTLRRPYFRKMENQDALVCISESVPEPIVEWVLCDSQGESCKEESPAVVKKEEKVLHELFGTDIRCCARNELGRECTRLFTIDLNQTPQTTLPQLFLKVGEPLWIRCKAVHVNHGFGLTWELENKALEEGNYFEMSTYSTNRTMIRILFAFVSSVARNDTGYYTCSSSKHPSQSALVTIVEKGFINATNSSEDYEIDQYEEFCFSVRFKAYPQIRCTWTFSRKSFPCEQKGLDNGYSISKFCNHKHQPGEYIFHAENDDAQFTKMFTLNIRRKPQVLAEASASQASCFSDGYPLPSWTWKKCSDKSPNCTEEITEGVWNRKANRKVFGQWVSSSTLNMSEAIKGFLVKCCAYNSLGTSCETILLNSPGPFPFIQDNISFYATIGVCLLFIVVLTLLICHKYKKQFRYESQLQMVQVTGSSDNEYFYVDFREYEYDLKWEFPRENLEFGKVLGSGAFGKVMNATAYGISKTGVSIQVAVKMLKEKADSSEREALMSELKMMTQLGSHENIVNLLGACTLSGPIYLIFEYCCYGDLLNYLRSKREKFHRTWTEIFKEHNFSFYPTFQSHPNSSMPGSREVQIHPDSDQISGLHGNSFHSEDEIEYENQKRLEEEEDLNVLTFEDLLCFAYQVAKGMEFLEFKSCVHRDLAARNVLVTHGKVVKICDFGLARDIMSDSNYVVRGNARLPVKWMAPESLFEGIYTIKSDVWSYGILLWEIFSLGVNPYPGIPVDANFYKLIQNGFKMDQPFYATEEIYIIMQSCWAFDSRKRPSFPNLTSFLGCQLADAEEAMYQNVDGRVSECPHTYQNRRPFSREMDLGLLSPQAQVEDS
# FLT3-ITD = FLT3-ITD (Homo sapiens (Human), UniProt P36888, INS600HVDFREYEYD); test: pFLT3 MSD assay, Ba/F3 FLT3-ITD; format: cell-based; details: Ba/F3 FLT3-ITD cells, 2 hours, read-out: BaF3-FLT3-ITD pFlt3 IC50
# FLT3-ITD, sequence (P36888 other isoform, or with tags, fused parts or gaps limits assumed, stated change not applied): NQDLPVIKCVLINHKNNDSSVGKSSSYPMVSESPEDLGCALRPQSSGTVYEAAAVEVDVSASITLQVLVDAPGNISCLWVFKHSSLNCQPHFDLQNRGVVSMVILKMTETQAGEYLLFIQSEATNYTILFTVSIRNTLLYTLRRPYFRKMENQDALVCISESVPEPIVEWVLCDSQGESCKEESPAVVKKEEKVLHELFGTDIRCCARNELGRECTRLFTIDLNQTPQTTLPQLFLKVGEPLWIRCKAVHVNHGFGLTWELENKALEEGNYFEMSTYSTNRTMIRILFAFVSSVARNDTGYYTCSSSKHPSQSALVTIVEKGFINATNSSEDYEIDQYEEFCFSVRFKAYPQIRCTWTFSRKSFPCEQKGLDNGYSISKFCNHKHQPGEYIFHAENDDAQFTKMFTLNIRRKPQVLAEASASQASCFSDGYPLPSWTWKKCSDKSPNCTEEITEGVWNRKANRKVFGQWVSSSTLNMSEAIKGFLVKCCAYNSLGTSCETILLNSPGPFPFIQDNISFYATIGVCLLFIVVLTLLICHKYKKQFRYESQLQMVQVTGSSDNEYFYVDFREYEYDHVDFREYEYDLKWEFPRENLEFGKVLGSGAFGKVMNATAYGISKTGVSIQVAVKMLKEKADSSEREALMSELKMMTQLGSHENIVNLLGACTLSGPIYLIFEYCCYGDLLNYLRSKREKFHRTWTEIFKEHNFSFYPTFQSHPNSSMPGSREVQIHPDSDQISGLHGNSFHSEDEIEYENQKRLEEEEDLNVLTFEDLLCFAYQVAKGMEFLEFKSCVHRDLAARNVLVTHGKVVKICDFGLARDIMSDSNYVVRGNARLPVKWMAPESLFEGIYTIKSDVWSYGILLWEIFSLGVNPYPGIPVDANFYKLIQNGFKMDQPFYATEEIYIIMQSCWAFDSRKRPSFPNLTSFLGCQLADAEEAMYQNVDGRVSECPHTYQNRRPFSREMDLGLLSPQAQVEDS
# KIT kinase, sequence (P10721 26-976): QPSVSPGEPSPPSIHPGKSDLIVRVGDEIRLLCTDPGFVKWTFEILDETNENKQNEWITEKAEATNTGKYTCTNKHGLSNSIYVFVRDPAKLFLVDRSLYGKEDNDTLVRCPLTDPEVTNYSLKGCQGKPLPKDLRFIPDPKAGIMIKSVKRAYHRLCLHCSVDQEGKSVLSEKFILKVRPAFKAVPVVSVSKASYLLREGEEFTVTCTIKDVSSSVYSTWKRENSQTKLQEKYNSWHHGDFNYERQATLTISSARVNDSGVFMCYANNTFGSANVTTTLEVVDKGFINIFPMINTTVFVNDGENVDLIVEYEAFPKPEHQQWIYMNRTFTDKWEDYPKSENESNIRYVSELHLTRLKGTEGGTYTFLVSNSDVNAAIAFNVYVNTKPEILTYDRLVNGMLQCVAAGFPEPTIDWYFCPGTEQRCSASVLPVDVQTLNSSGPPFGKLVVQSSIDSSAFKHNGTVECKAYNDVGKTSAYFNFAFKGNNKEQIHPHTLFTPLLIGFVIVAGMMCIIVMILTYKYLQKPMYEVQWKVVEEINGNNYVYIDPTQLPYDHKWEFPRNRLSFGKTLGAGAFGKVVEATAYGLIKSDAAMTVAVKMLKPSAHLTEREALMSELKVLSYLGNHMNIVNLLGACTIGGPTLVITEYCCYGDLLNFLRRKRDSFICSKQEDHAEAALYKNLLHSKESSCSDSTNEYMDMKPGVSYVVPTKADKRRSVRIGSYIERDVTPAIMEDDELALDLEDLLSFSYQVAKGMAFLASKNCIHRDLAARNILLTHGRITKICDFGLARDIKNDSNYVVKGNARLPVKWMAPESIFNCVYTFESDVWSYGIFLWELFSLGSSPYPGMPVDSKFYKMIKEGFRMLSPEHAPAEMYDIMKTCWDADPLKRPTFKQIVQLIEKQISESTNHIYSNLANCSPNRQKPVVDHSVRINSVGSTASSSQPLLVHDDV
Compound,Kd (KIT kinase) [nM],Kd (FLT3 kinase) [nM],IC50 (FLT3-ITD) [nM]
"O=C(Cc1ccc(-c2cnc3cc4c(cc3n2)O[C@H](CO)CO4)cc1F)Nc1cc(C2(C(F)(F)F)CC2)on1 [Example 122, 2-[2-fluoro-4-[(3R)-3-(hydroxymethyl)-2,3-dihydro-[1,4]dioxino[2,3-g]quinoxalin-7-yl]phenyl]-N-[5-[1-(trifluoro-methyl)cyclopropyl]isoxazol-3-yl]acetamide]",< 5,< 5,< 10
"COc1cc2nc(N)c(-c3ccc(CC(=O)Nc4cc(C5(C(F)(F)F)CC5)on4)c(F)c3)nc2cc1OC [Example 123, 2-[4-(3-amino-6,7-dimethoxy-quinoxalin-2-yl)-2-fluoro-phenyl]-N-[5-[1-(trifluoro-methyl)cyclopropyl]isoxazol-3-yl]acetamide]",< 5,< 5,< 10
"COc1cc2nc(OC)c(-c3ccc(CC(=O)Nc4cc(C5(C(F)(F)F)CC5)on4)c(F)c3)nc2cc1OC [Example 124, 2-[2-fluoro-4-(3,6,7-trimethoxyquinoxalin-2-yl)phenyl]-N-[5-[1-(trifluoro-methyl)cyclopropyl]isoxazol-3-yl]acetamide]",5 to 20,< 5,10 to 20
"COCCOc1cc2ncc(-c3ccc(CC(=O)Nc4cc(C5(C(F)(F)F)CC5)on4)c(F)c3)nc2cc1OCCOC [Example 125, 2-[4-[6,7-bis(2-methoxyethoxy)quinoxalin-2-yl]-2-fluoro-phenyl]-N-[5-[1-(trifluoro-methyl)cyclopropyl]isoxazol-3-yl]acetamide]",< 5,< 5,< 10
"COCCOc1cc2ncc(-c3ccc(CC(=O)Nc4cc(C5(C(F)(F)F)CC5)on4)c(F)c3)cc2cc1OC [Example 126, 2-[2-fluoro-4-[6-methoxy-7-(2-methoxyethoxy)-3-quinolyl]phenyl]-N-[5-[1-(trifluoromethyl)cyclo-propyl]isoxazol-3-yl]acetamide]",< 5,< 5,< 10
"COc1cc2cc(-c3ccc(CC(=O)Nc4cc(C5(C(F)(F)F)CC5)on4)c(F)c3)cnc2cc1OCCOC(C)=O [Example 127, 2-[[3-[3-fluoro-4-[2-oxo-2-[[5-[1-(trifluoro-methyl)cyclopropyl]isoxazol-3-yl]amino]ethyl]phenyl]-6-methoxy-7-quinolyl]oxy]ethyl acetate]",< 5,< 5,< 10
"COc1cc2cc(-c3ccc(CC(=O)Nc4cc(C5(C(F)(F)F)CC5)on4)c(F)c3)cnc2cc1OC [Example 128, 2-[4-(6,7-dimethoxy-3-quinolyl)-2-fluoro-phenyl]-N-[5-[1-(trifluoro-methyl)cyclopropyl]isoxazol-3-yl]acetamide]",< 5,< 5,< 10
"COc1cc2cc(-c3ccc(CC(=O)Nc4cc(C(C)(C)C(F)(F)F)on4)c(F)c3)cnc2cc1OC [Example 129, 2-[4-(6,7-dimethoxy-3-quinolyl)-2-fluoro-phenyl]-N-[5-(2,2,2-trifluoro-1,1-dimethyl-ethyl)isoxazol-3-yl]acetamide]",< 5,< 5,< 10
"COc1cc2nc(-c3ccc(CC(=O)Nc4cc(C5(C(F)(F)F)CC5)on4)c(F)c3)cnc2cc1OCCOC(C)=O [Example 130, 2-[2-[3-fluoro-4-[2-oxo-2-[[5-[1-(trifluoromethyl)cyclo-propyl]isoxazol-3-yl]amino]ethyl]phenyl]-7-methoxy-quinoxalin-6-yl]oxyethyl acetate]",< 5,< 5,< 10
"COc1cc2nc(-c3ccc(CC(=O)Nc4cc(C5(C(F)(F)F)CC5)on4)c(F)c3)cnc2cc1OCCO [Example 131, 2-[2-fluoro-4-[6-(2-hydroxyethoxy)-7-methoxy-quinoxalin-2-yl]phenyl]-N-[5-[1-(trifluoromethyl)cyclo-propyl]isoxazol-3-yl]acetamide]",< 5,< 5,< 10
"CCOC(=O)c1nc2cc(OC)c(OC)cc2nc1-c1ccc(CC(=O)Nc2cc(C3(C(F)(F)F)CC3)on2)c(F)c1 [Example 132, ethyl 3-[3-fluoro-4-[2-oxo-2-[[5-[1-(trifluoro-methyl)cyclopropyl]isoxazol-3-yl]amino]ethyl]phenyl]-6,7-dimethoxy-quinoxaline-2-carboxylate]",> 50,> 50,> 50
"COc1cc2nc(C(=O)O)c(-c3ccc(CC(=O)Nc4cc(C5(C(F)(F)F)CC5)on4)c(F)c3)nc2cc1OC [Example 133, 3-[3-fluoro-4-[2-oxo-2-[[5-[1-(trifluoro-methyl)cyclopropyl]isoxazol-3-yl]amino]ethyl]phenyl]-6,7-dimethoxy-quinoxaline-2-carboxylic acid]",> 50,20 to 50,> 50
"COc1cc2nc(-c3ccc(CC(=O)Nc4cc(C5(C(F)(F)F)CC5)on4)c(F)c3)cnc2cc1OCCN1CCCC1 [Example 134, 2-[2-fluoro-4-[7-methoxy-6-(2-pyrrolidin-1-ylethoxy)quinoxalin-2-yl]phenyl]-N-[5-[1-(trifluoromethyl)cyclo-propyl]isoxazol-3-yl]acetamide]",< 5,< 5,< 10
"COc1cc2nc(C(N)=O)c(-c3ccc(CC(=O)Nc4cc(C5(C(F)(F)F)CC5)on4)c(F)c3)nc2cc1OC [Example 135, 3-[3-fluoro-4-[2-oxo-2-[[5-[1-(trifluoro-methyl)cyclopropyl]isoxazol-3-yl]amino]ethyl]phenyl]-6,7-dimethoxy-quinoxaline-2-carboxamide]",> 50,> 50,> 50

# Second part, the compound after the results:
Kd (KIT kinase) [nM],Kd (FLT3 kinase) [nM],IC50 (FLT3-ITD) [nM],Compound
5 to 20,< 5,< 10,"COc1cc2nc(-c3ccc(CC(=O)Nc4cc(C5(C(F)(F)F)CC5)on4)c(F)c3)cnc2cc1OCCOC(=O)N(C)C [Example 136, 2-[2-[3-fluoro-4-[2-oxo-2-[[5-[1-(trifluoro-methyl)cyclopropyl]isoxazol-3-yl]amino]ethyl]phenyl]-7-methoxy-quinoxalin-6-yl]oxyethyl N,N-dimethylcarbamate]"
< 5,< 5,< 10,"COc1cc2nc(CO)c(-c3ccc(CC(=O)Nc4cc(C5(C(F)(F)F)CC5)on4)c(F)c3)nc2cc1OC [Example 137, 2-[2-fluoro-4-[3-(hydroxymethyl)-6,7-dimethoxy-quinoxalin-2-yl]phenyl]-N-[5-[1-(trifluoro-methyl)cyclopropyl]isoxazol-3-yl]acetamide]"
< 5,< 5,< 10,"COc1cc2ncc(-c3ccc(CC(=O)Nc4cc(C(C)(C)C(F)(F)F)on4)c(F)c3)c(Cl)c2cc1OC [Example 138, 2-[4-(4-chloro-6,7-dimethoxy-3-quinolyl)-2-fluoro-phenyl]-N-[5-(2,2,2-trifluoro-1,1-dimethyl-ethyl)isoxazol-3-yl]acetamide]"
< 5,< 5,< 10,"COc1cc2ncc(-c3ccc(CC(=O)Nc4cc(C(C)(C)C)nn4C)c(F)c3)nc2cc1OC [Example 139, N-(5-tert-butyl-2-methyl-pyrazol-3-yl)-2-[4-(6,7-dimethoxyquinoxalin-2-yl)-2-fluoro-phenyl]acetamide]"
5 to 20,< 5,< 10,"COc1cc2ncc(-c3ccc(CC(=O)Nc4cc(C(C)(C)C)nn4-c4ccccc4)c(F)c3)nc2cc1OC [Example 140, N-(5-tert-butyl-2-phenyl-pyrazol-3-yl)-2-[4-(6,7-dimethoxyquinoxalin-2-yl)-2-fluoro-phenyl]acetamide]"
5 to 20,< 5,< 10,"COc1cc2ncc(-c3ccc(CC(=O)Nc4cc(C(C)(C)C(F)(F)F)on4)c(F)c3)c(N=[N+]=[N-])c2cc1OC [Example 141, 2-[4-(4-azido-6,7-dimethoxy-3-quinolyl)-2-fluoro-phenyl]-N-[5-(2,2,2-trifluoro-1,1-dimethyl-ethyl)isoxazol-3-yl]acetamide]"
< 5,< 5,< 10,"CCN1CC(Oc2cc3ncc(-c4ccc(CC(=O)Nc5cc(C6(C(F)(F)F)CC6)on5)c(F)c4)nc3cc2OC)C1 [Example 142, 2-[4-[6-(1-ethylazetidin-3-yl)oxy-7-methoxy-quinoxalin-2-yl]-2-fluoro-phenyl]-N-[5-[1-(trifluoro-methyl)cyclopropyl]isoxazol-3-yl]acetamide]"
5 to 20,< 5,10 to 20,"COc1cc2ncc(-c3ccc(CC(=O)Nc4cc(C(C)(C)C(F)(F)F)on4)c(F)c3)c(N)c2cc1OC [Example 143, 2-[4-(4-amino-6,7-dimethoxy-3-quinolyl)-2-fluoro-phenyl]-N-[5-(2,2,2-trifluoro-1,1-dimethyl-ethyl)isoxazol-3-yl]acetamide]"
< 5,< 5,< 10,"COc1cc2nc(-c3ccc(CC(=O)Nc4cc(C5(C(F)(F)F)CC5)on4)c(F)c3)cnc2cc1OC1COC1 [Example 144, 2-[2-fluoro-4-[7-methoxy-6-(oxetan-3-yloxy)quinoxalin-2-yl]phenyl]-N-[5-[1-(trifluoro-methyl)cyclopropyl]isoxazol-3-yl]acetamide]"
> 50,5 to 20,> 50,"COc1cc2ncc(-c3ccc(CC(=O)Nc4cc(C(C)(C)C(F)(F)F)on4)c(F)c3)c(OC)c2cc1OC [Example 145, 2-[2-fluoro-4-(4,6,7-trimethoxy-3-quinolyl)phenyl]-N-[5-(2,2,2-trifluoro-1,1-dimethyl-ethyl)isoxazol-3-yl]acetamide]"
< 5,< 5,< 10,"COc1cc2nc(Cl)c(-c3ccc(CC(=O)Nc4cc(C5(C(F)(F)F)CC5)on4)c(F)c3)nc2cc1OC [Example 146, 2-[4-(3-chloro-6,7-dimethoxy-quinoxalin-2-yl)-2-fluoro-phenyl]-N-[5-[1-(trifluoromethyl)cyclo-propyl]isoxazol-3-yl]acetamide]"
